In one data set the test system is rat hepatocytes. Kind of data set: Uptake and intracellular deacetylation of acetylated trehalose in cultured rat hepatocytes (trehalase assay kit, total after NaOH hydrolysis). It counts as in vitro ADME. To be noted: 30 mM incubation. From the text: Rat hepatocytes were provided by the Cell Resource Center (CRC) at the Center for Engineering in Medicine at Massachusetts General Hospital. Briefly, hepatocytes were obtained from female Lewis rats using a two-step collagenase protocol. Two or three month old rat (Charles River Laboratories, Wilmington, MA) weighing 180–200 g were used as hepatocyte source and were maintained in accordance with National Research Council guidelines. Experimental protocols in practice at CRC for the use of hepatocytes in this study were approved by the subcommittee on Research Animal Care, Massachusetts General Hospital. Using a modification of the two-step collagenase perfusion method, which involved purification of cell suspension by means of centrifugation over Percoll, approximately 200 million hepatocytes per rat liver with 85–95% viability were routinely obtained, as evaluated by Trypan blue exclusion. Hepatocytes were kept on ice and were plated within 1 h of isolation.
For trehalose loading experiments, 6-well plates were treated with 25μg/mL fibronectin for 1 h prior to plating the hepatocytes, at which point the wells were washed with PBS and the hepatocytes were seeded at 1.2–1.3×10^6 cells/well. The cells were allowed 24–48 h to attach and spread in a 10% (v/v) CO2 incubator at 37°C before they were incubated with acetylated variants of trehalose. […]
The cell lysates were analyzed for protein content using a Bradford Commassie assay for cell count approximation. Trehalose content of cell lysates were measured using a trehalose assay kit following the manufacturer’s protocol. […] This solution was analyzed for total trehalose content against the trehalose controls prepared in a similar fashion, and the concentration was adjusted for the dilution due to addition of NaOH and HCl. To estimate the number of cells, protein content of the cell lysate was assessed using the Pierce^TM Coomassie Plus (Bradford) assay (Life Technologies, Grand Island, NY, USA). […]

Another data set can be described thus: Water solubility. It counts as physicochemical.

Molecules are shown by their SMILES.

In the case of `CC(=O)OC1C(OC2OC(CO)C(O)C(OC(C)=O)C2OC(C)=O)OC(CO)C(O)C1OC(C)=O` (stereo not drawn) [4-O-Ac-Tre, trehalose tetraacetate], the “enhancement of membrane permeability over regular trehalose” value with rat hepatocytes was “did not observe a significant enhancement of the permeability”. With `CC(=O)OCC1OC(OC2OC(COC(C)=O)C(OC(C)=O)C(OC(C)=O)C2OC(C)=O)C(OC(C)=O)C(OC(C)=O)C1OC(C)=O` (stereo not drawn) [8-O-Ac-Tre], the water solubility entry in the data set “Water solubility” is on record as “not water soluble”. Regarding `CC(=O)OCC1OC(OC2OC(COC(C)=O)C(O)C(O)C2O)C(O)C(O)C1O` (stereo not drawn) [trehalose diacetate], in the data set with rat hepatocytes, the “enhancement of membrane permeability over regular trehalose” value is “did not observe a significant enhancement of the permeability”.

The record behind these values is publication PMC4482662, “Engineered Trehalose Permeable to Mammalian Cells” (PLoS ONE, 2015).
